Measured values published in ChEMBL document CHEMBL1145929, “Syntheses and binding studies of new [(aryl)(aryloxy)methyl]piperidine derivatives and related compounds as potential antidepressant drugs with high affinity for serotonin (5-HT) and norepinephrine (NE) transporters” (J Med Chem, 2003).

Assays:
[1] = target: T1, 5-hydroxytryptamine receptor 1A (Rattus norvegicus, UniProt P19327); assay: Displacement of [3H]8-OH-DPAT from 5-hydroxytryptamine 1A receptor of rat hippocampus mambranes; type: tissue-based
T1 sequence (P19327 whole entry): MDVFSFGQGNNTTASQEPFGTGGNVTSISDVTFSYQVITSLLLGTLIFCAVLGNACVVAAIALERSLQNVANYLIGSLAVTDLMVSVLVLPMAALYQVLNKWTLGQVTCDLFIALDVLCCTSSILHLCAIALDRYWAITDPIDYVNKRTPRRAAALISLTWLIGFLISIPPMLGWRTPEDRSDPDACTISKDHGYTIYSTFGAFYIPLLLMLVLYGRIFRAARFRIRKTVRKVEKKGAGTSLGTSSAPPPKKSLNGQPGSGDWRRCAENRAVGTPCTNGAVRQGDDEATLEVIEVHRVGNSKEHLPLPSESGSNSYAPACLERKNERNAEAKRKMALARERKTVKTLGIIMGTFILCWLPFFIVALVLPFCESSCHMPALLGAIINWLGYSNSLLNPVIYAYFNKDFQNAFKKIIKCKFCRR

[2] = target: T2, 5-hydroxytryptamine receptor 2A (Rattus norvegicus, UniProt P14842); assay: Binding affinity against 5-hydroxytryptamine 2A receptor by displacement of [3H]ketanserin from rat prefrontal cerebral cortex mambranes; type: tissue-based, Frontal cortex
T2 sequence (P14842 whole entry): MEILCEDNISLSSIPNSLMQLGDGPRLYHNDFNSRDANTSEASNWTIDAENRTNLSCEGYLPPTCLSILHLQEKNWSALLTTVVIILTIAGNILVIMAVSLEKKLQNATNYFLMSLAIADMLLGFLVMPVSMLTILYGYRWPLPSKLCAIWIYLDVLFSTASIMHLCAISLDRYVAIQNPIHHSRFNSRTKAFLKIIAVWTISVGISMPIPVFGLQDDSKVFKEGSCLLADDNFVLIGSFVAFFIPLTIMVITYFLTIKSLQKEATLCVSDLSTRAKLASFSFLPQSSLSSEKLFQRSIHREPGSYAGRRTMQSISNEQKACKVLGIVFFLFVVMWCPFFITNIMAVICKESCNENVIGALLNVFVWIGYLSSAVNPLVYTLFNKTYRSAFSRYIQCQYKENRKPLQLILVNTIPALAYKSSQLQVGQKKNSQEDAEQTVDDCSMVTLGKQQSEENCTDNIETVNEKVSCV

[3] = target: T3, Sodium-dependent serotonin transporter (Rattus norvegicus, UniProt P31652); assay: Binding affinity against serotonin transporter (SERT) by displacement of [3H]paroxetine in male wistar rats
T3 sequence (P31652 whole entry): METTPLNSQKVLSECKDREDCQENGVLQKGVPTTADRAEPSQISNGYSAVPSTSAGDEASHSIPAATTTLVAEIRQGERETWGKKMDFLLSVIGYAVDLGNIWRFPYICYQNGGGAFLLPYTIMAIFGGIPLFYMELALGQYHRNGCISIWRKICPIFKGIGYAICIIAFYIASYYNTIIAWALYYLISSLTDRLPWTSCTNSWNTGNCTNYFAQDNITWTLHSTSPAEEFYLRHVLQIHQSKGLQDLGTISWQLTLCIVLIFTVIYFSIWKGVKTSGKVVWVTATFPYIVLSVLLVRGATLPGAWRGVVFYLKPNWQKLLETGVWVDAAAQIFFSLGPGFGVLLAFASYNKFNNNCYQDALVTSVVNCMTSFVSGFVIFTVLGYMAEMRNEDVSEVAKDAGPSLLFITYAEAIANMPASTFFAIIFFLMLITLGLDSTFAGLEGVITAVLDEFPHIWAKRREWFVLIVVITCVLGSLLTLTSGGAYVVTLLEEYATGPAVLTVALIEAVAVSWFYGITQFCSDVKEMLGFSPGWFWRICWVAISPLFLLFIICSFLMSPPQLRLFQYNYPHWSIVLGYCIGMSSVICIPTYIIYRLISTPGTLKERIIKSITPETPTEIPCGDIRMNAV

[4] = target: T1, 5-hydroxytryptamine receptor 1A; assay: Binding affinity against 5-hydroxytryptamine 1A receptor (5-HT1A) by displacement of [3H]8-OH-DPAT from rat hippocampus membranes; type: cell membranes, Membrane
[5] = target: T3, Sodium-dependent serotonin transporter; assay: Binding affinity against serotonin transporter (SERT) by displacement of [3H]paroxetine in male wistar rat
[6] = target: T3, Sodium-dependent serotonin transporter; assay: Binding affinity to the serotonin transporter (SERT) measured by displacement of [3H]paroxetine in male wistar rats
[7] = target: T2, 5-hydroxytryptamine receptor 2A; assay: Binding affinity against 5-hydroxytryptamine 2A receptor by displacement of [3H]-ketanserin from rat prefrontal cerebral cortex mambranes; type: tissue-based, Frontal cortex
[8] = target: Sodium-dependent dopamine transporter (Rattus norvegicus, UniProt P23977); assay: Binding affinity against dopamine transporter (DAT) by displacement of [3H]WIN-35428 in male wistar rats
Sodium-dependent dopamine transporter, sequence (P23977 whole entry): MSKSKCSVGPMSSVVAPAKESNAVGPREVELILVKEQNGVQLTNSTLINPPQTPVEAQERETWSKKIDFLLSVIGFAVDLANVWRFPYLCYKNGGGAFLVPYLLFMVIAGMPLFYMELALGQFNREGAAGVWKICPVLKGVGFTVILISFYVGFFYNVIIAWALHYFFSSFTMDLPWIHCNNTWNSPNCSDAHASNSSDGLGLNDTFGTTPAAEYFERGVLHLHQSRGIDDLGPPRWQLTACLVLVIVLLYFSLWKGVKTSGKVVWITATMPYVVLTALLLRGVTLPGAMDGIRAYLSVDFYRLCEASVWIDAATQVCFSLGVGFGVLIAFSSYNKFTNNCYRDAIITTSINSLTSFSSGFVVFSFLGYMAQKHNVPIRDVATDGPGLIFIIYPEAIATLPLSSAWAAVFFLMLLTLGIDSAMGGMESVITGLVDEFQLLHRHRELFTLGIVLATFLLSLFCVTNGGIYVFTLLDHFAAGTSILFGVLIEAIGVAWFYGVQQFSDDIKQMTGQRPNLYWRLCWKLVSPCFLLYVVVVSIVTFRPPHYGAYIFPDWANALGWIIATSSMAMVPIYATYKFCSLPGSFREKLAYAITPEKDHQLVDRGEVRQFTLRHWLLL

[9] = target: Norepinephrine transporter (Rattus norvegicus, UniProt Q9WTR4); assay: Binding affinity against norepinephrine transporter (NET) by displacement of [3H]nisoxetine in male wistar rats
Norepinephrine transporter, sequence (Q9WTR4 whole entry): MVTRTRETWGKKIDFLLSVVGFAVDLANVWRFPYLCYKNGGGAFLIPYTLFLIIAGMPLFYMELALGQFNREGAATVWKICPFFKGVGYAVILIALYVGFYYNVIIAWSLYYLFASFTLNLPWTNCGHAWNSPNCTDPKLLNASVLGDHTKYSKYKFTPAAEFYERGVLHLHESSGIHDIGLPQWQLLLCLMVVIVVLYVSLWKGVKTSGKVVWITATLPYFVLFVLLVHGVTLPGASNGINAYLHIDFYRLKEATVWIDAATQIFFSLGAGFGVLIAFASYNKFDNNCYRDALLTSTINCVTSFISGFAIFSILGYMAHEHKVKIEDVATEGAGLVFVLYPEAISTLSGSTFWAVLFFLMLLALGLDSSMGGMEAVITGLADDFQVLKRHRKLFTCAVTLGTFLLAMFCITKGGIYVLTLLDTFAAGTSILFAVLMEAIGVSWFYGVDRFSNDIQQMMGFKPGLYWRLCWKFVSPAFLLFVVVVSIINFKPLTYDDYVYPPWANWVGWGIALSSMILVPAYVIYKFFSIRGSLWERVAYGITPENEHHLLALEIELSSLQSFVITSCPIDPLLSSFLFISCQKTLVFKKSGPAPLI

SMILES	Ki [2]	IC50 [3]	IC50 [4]	Ki [6]	IC50 [7]	IC50 [8]	other results
FC(F)(F)c1ccccc1OC(CCN1CCN(c2nsc3ccccc23)CC1)c1ccccc1 (stereo unspecified)	24.1 nM	> 1000 nM					Ki [1]: 446 nM
Nc1ccc(OC(CCC(=O)C2CCN(c3ccc(F)cc3)CC2)c2ccc(F)cc2)cc1 (stereo unspecified)	14.4 nM	> 1000 nM	> 1000 nM				
FC(F)(F)c1ccc(OC(CCN2CCN(c3nsc4ccccc34)CC2)c2ccccc2)cc1 (stereo unspecified)	40.2 nM	> 1000 nM					Ki [1]: 33.7 nM
c1ccc(-c2ccccc2OC(c2ccccc2)C2CCNCC2)cc1 (stereo unspecified)	149 nM	> 1000 nM	> 1000 nM				
Fc1ccccc1OC(CCN1CCN(c2nsc3ccccc23)CC1)c1ccccc1 (stereo unspecified)	5.3 nM						Ki [1]: 70.2 nM; IC50 [5]: > 1000 nM
O=C(CCC(Oc1ccc([N+](=O)[O-])cc1)c1ccccc1)C1CCN(c2ccc(F)cc2)CC1 (stereo unspecified)	23 nM	> 1000 nM	> 1000 nM				
O=[N+]([O-])c1ccc(OC(CCN2CCN(c3n[o+][c-]4ccccc34)CC2)c2ccccc2)cc1 (stereo unspecified)	53.3 nM	> 1000 nM					Ki [1]: 254 nM
COc1ccc(OC(CCN2CCN(c3noc4ccccc34)CC2)c2ccccc2)cc1 (stereo unspecified)	18.9 nM	> 1000 nM					Ki [1]: 182 nM
O=C(CCC(Oc1ccc([N+](=O)[O-])cc1)c1ccc(F)cc1)C1CCN(c2ccc(F)cc2)CC1 (stereo unspecified)	55.1 nM	> 1000 nM	> 1000 nM				
COc1ccc(OC(CCN2CCN(c3nsc4ccccc34)CC2)c2ccccc2)cc1 (stereo unspecified)	10.2 nM	> 1000 nM					Ki [1]: 69.7 nM
Fc1ccc(OC(CC2CCNCC2)c2ccccc2)cc1 (stereo unspecified)	140 nM		> 1000 nM	78.3 nM			
FC(F)(F)c1cccc(OC(CCN2CCN(c3nsc4ccccc34)CC2)c2ccccc2)c1 (stereo unspecified)	28.2 nM	> 1000 nM	> 1000 nM				
Fc1ccc(OC(CC2CCNCC2)c2ccc(F)cc2)cc1 (stereo unspecified)	194 nM		> 1000 nM	67.7 nM			
O=C(CCC(Oc1ccccc1F)c1ccccc1)C1CCN(c2ccc(F)cc2)CC1 (stereo unspecified)	8 nM	> 1000 nM					Ki [1]: 37.8 nM
Fc1ccc(OC(c2cccc(F)c2)C2CCNCC2)cc1 (stereo unspecified)	360 nM		> 1000 nM	5.8 nM			
Fc1ccccc1OC(CCN1CCN(c2noc3ccccc23)CC1)c1ccccc1 (stereo unspecified)	17.2 nM	> 1000 nM					Ki [1]: 118 nM
CN1CCC(C(Oc2ccc(F)cc2)c2ccccc2)CC1 (stereo unspecified)	44.4 nM	> 1000 nM	> 1000 nM				
COc1ccc(OC(CCC(=O)C2CCN(c3ccc(F)cc3)CC2)c2ccccc2)cc1 (stereo unspecified)	53.8 nM	> 1000 nM					Ki [1]: 93.6 nM
Nc1ccc(OC(CCC(=O)C2CCN(c3ccc(F)cc3)CC2)c2ccccc2)cc1 (stereo unspecified)	16.4 nM	> 1000 nM					Ki [1]: 108 nM
Fc1ccccc1OC(c1ccccc1)C1CCNCC1 (single isomer, unassigned; (+))			> 1000 nM	28.5 nM	> 1000 nM		Ki [8]: 520 nM; Ki [9]: 41.4 nM
O=[N+]([O-])c1ccc(OC(c2ccccc2)C2CCNCC2)cc1 (single isomer, unassigned; (+))			> 1000 nM		> 1000 nM	> 1000 nM	IC50 [9]: > 1000 nM
c1ccc(C(Oc2cccc3ccccc23)C2CCNCC2)cc1 (single isomer, unassigned; (+))			> 1000 nM	20.1 nM	> 1000 nM	> 1000 nM	Ki [9]: 417 nM

SMILES	Ki [2]	IC50 [3]	IC50 [4]	Ki [6]	IC50 [7]	IC50 [8]	other results
Fc1cccc(OC(c2cccc(F)c2)C2CCNCC2)c1 (single isomer, unassigned; (+))			> 1000 nM	2.8 nM	> 1000 nM	> 500 nM	
N#Cc1cccc(OC(c2ccccc2)C2CCNCC2)c1 (single isomer, unassigned; (+))			> 1000 nM	1.4 nM	> 1000 nM	> 1000 nM	
Fc1cccc(C(Oc2ccccc2F)C2CCNCC2)c1 (single isomer, unassigned; (+))			> 1000 nM		> 1000 nM		Ki [9]: 48.1 nM
Brc1ccc(OC(c2ccccc2)C2CCNCC2)cc1 (single isomer, unassigned; (+))			> 1000 nM	23.2 nM	> 1000 nM	> 1000 nM	IC50 [9]: > 1000 nM
Fc1ccccc1OC(c1ccccc1)C1CCNCC1 (single isomer, unassigned; (-))			> 1000 nM		> 1000 nM	> 1000 nM	Ki [9]: 22.5 nM
O=[N+]([O-])c1ccc(OC(c2ccccc2)C2CCNCC2)cc1 (single isomer, unassigned; (-))			> 1000 nM	0.6 nM	> 1000 nM	> 1000 nM	IC50 [9]: > 500 nM
N#Cc1cccc(OC(c2ccccc2)C2CCNCC2)c1 (single isomer, unassigned; (-))			> 1000 nM	1.4 nM	> 1000 nM		Ki [8]: 110 nM
Fc1cccc(C(Oc2ccccc2F)C2CCNCC2)c1 (single isomer, unassigned; (-))			> 1000 nM	4.3 nM	> 1000 nM	> 500 nM	Ki [9]: 19.1 nM
FC(F)(F)c1ccc(OC(c2ccccc2)C2CCNCC2)cc1 (single isomer, unassigned; (-))						> 1000 nM	IC50 [9]: > 1000 nM
Brc1ccc(OC(c2ccccc2)C2CCNCC2)cc1 (single isomer, unassigned; (-))			> 1000 nM	5.7 nM	> 1000 nM	> 1000 nM	IC50 [9]: > 500 nM
Fc1cc(F)cc(OC(c2ccccc2)C2CCNCC2)c1 (stereo in doubt; (+)-15aj)			> 1000 nM	7.1 nM	> 1000 nM	> 500 nM	
Fc1cccc(OC(c2ccccc2)C2CCNCC2)c1 (stereo in doubt; (+)-15j)			> 1000 nM		> 1000 nM		Ki [8]: 163 nM; Ki [9]: 98.3 nM
Clc1cccc(OC(c2ccccc2)C2CCNCC2)c1 (stereo in doubt; (+)-15l)			> 1000 nM		> 1000 nM	> 1000 nM	
Fc1ccc(OC(c2ccccc2)C2CCNCC2)cc1 (stereo in doubt; (+)-15p)			> 1000 nM	0.4 nM	> 1000 nM		Ki [8]: 821 nM
FC(F)(F)c1ccc(OC(c2ccccc2)C2CCNCC2)cc1 (stereo in doubt; (+)-15q)						> 1000 nM	IC50 [9]: > 1000 nM
Fc1cc(F)cc(OC(c2ccccc2)C2CCNCC2)c1 (stereo in doubt; (-)-15aj)			> 1000 nM		> 1000 nM	> 1000 nM	
c1ccc(C(Oc2cccc3ccccc23)C2CCNCC2)cc1 (stereo in doubt; (-)-15au)			> 1000 nM	28.1 nM	> 1000 nM	> 1000 nM	IC50 [9]: > 1000 nM
Fc1cccc(OC(c2ccccc2)C2CCNCC2)c1 (stereo in doubt; (-)-15j)			> 1000 nM		> 1000 nM		Ki [9]: 13.5 nM
Clc1cccc(OC(c2ccccc2)C2CCNCC2)c1 (stereo in doubt; (-)-15l)			> 1000 nM		> 1000 nM	> 500 nM	
CCCN(CCC)C1CCc2cccc(O)c2C1 (stereo unspecified) [8-OH-DPAT]		> 1000 nM			> 1000 nM	> 1000 nM	IC50 [9]: > 1000 nM
OC1(c2ccc(Cl)cc2)c2ccccc2C2=NCCN21 (stereo unspecified) [MAZINDOL]			> 1000 nM	248 nM	> 1000 nM		Ki [8]: 44.3 nM; Ki [9]: 0.8 nM
CN1CCN2c3ncccc3Cc3ccccc3C2C1 (stereo unspecified) [MIRTAZAPINE]		> 1000 nM	> 1000 nM			> 1000 nM	IC50 [9]: > 1000 nM
